From patent US7407670B2, “Solid dispersions comprising two different polymer matrixes” (Janssen Pharmaceutica, N.V., priority 2002, dated 2008)

Test: Solubility of itraconazole in polymer solutions at 298K
Assay type: physicochemical
Conditions: eudragit E100 solution versus PVPVA64 solution
Text: FIG. 10: Solubility of itraconazole in different concentration of polymer solutions at 298K in eudragit E100 (open bars) and PVPVA64 (closed bars).

- solubility in polymer solution (comparison in words): much higher in eudragit E100 solution
SMILES: CCC(C)n1ncn(-c2ccc(N3CCN(c4ccc(OCC5COC(Cn6cncn6)(c6ccc(Cl)cc6Cl)O5)cc4)CC3)cc2)c1=O (stereo not shown) [itraconazole, Itraconazole]
